For 93 compounds, IC50 results are on record in PubChem BioAssay AID602167 (The Scripps Research Institute Molecular Screening Center, 2012).

As usually defined, the IC50 is the concentration that inhibits the measured activity by half.

In this assay the target is transactivating tegument protein VP16 (Human herpesvirus 1), as a GAL4-VP16 activation-domain luciferase reporter. The assay can be described thus: VP16 transactivation inhibitor potency, dose response, counter-screen for SRC3 inhibitor project, cell-based, luminescence, high throughput, SRC3 series (AID 602167). The following applies: VP16 transactivation luciferase reporter cells. In general terms: Counterscreens check selectivity or assay interference.

Active and inactive are the calls of the source. The rule behind the calls is not given here.

As for `COc1ccc(C(C(=O)NC2CCCCC2)N(C(=O)CCl)c2ccc(Cl)cc2)cc1` (stereo not drawn), the IC50 was 5.27 µM.

In the case of `Cc1ccc(C(=O)O/N=C(\N)c2ccccn2)c(Cl)c1`, the IC50 entry is “inactive”.

`CCCC(=O)NC(c1ccc(Cl)cc1)c1ccc2cccnc2c1O` (stereo not drawn): the IC50 was 4.4 µM.

`CCCNC(=O)c1nnsc1S(=O)(=O)c1ccc(Cl)cc1`: the IC50 result was “inactive”.

Consider `COC(=O)c1cccc2c1-c1ccccc1/C2=N/O`, for which the IC50 is 5.73 µM.

For the compound `C#CC(=O)N(c1cc(OC)ccc1OC)C(C(=O)NC1CCCC1)c1cccs1` (stereo not drawn), the IC50 is > 35.9 µM (inactive).

Turning to `OCCN1CCN(C(=S)c2ccc(-c3ccccc3)cc2)CC1`, the IC50 is > 35.9 µM (inactive).

Turning to `Cc1ccc2occ(/C=N/NC(=O)c3ccccc3Br)c(=O)c2c1`, the IC50 is 9.36 µM.

Take `COc1cccc(NC(=O)CSc2nnc(-c3cc(C)n(-c4ccccc4)c3C)o2)c1`: the concentration for half-maximal inhibition (IC50) was 2.4 µM.

As for `COc1cccc(-c2nnc3sc(C4CCCCC4)nn23)c1`, the IC50 was 9.52 µM.

As for `CCn1nc(/C=C/c2ccccc2)nc2c(=O)n(C)c(=O)nc1-2`, the IC50 is 5.14 µM.

As for `CCn1ccnc1CN(C)Cc1cn[nH]c1-c1ccc(OC)c(F)c1`, the IC50 was 7.96 µM.

As to `O=C(NCc1ccccc1)c1c(Cl)nc(Cl)c(Cl)c1Cl`, the IC50 entry was “inactive”.

Consider `Nc1ncnc(NCc2ccccc2)c1[N+](=O)[O-]`, for which the IC50 entry is “inactive”.

Turning to `CCCCC(=O)NC(c1ccc(Cl)cc1Cl)c1ccc2cccnc2c1O` (stereo not drawn), the IC50 is 4.78 µM.

As for `COCCNC(=O)c1cc(-c2ccccn2)nc2ccc(S(=O)(=O)N3CCC(C)CC3)cc12`, the IC50 was > 35.9 µM (inactive).

For `C[C@@H](C(=O)Nc1ccc2c(c1)OCCO2)n1c(=O)[nH]c2ccccc2c1=O`, the IC50 entry was “inactive”.

As to `COc1ccc(-c2cn[nH]c2-c2ccc(OC)cc2O)cc1`, the IC50 was 6.04 µM.

Regarding `CCCS(=O)(=O)Nc1ccc(Nc2c3ccccc3nc3ccccc23)c(OC)c1`, the IC50 is > 35.9 µM (inactive).

In the case of `Cc1cc(-c2nnc(SCC(=O)Nc3ccccc3C(F)(F)F)o2)c(C)n1-c1ccccc1`, the IC50 was > 35.9 µM (inactive).

Consider `O=C(COC(=O)c1ccc[nH]c1=O)Nc1ccc(N2CCCCC2)cc1`, for which the IC50 is > 35.9 µM (inactive).

As for `O=C(OCCC12CC3CC(CC(C3)C1)C2)c1ccc(NCc2cc(O)ccc2O)cc1`, the IC50 is 5.45 µM.

As for `CC(=O)c1cccc(-c2csc3ncnc(Sc4nnnn4C)c23)c1`, the IC50 is 6.89 µM.

`CN(C)S(=O)(=O)c1ccc(N2CCN(S(=O)(=O)c3ccc(F)cc3)CC2)c(Cl)c1`: the IC50 is 9.39 µM.

`CCCCN1C=CC(=C2C(=O)c3ccccc3C2=O)C=C1`: the IC50 is 5.59 µM.

With `CCCC(=O)NC(c1ccc2c(c1)OCO2)c1cc(Cl)c2cccnc2c1O` (stereo not drawn), the IC50 is 7.92 µM.

Regarding `Cc1ccc(C2=NN(C(=O)CCl)C(c3cccs3)C2)o1` (stereo not drawn), the IC50 result is “inactive”.

As for `CC1(C)N=C(N)N=C(N)N1CCCCc1ccccc1`, the IC50 is 5.25 µM.

On to `O=C(N/N=C\c1ccc([N+](=O)[O-])o1)C1COc2ccccc2O1` (stereo not drawn), for which the IC50 entry is “inactive”.

With `CN(Cc1cnc2nc(N)nc(N)c2n1)c1ccc(C(=O)N[C@@H](CCC(=O)O)C(=O)O)cc1`, the IC50 is > 35.9 µM (inactive).

In the case of `COc1ccc(/C=C2/SC(=S)N(CCC(=O)O)C2=O)cc1`, the IC50 is > 35.9 µM (inactive).

For the compound `CCOc1ccc(/C=C2\SC(=S)N(CCC(=O)O)C2=O)cc1`, the IC50 is > 35.9 µM (inactive).

For the compound `CC[C@@]1(O)C(=O)OCc2c1cc1n(c2=O)Cc2cc3c(NC(=O)CN)cccc3nc2-1`, the IC50 is > 35.9 µM (inactive).

Turning to `CCCC(=O)NC(c1ccc(Cl)cc1Cl)c1ccc2cccnc2c1O` (stereo not drawn), the IC50 is 4.42 µM.

For `O=C(Nc1nc2ccccc2s1)C1c2ccccc2Oc2ccccc21`, the IC50 result was “inactive”.

Take `NC(=O)c1cc(Sc2ccccc2)nc2ccccc12`: the IC50 entry is “inactive”.

As to `CCOc1cc(/C=C2\CCC/C(=C\c3cc(Cl)c(O)c(OCC)c3)C2=O)cc(Cl)c1O`, the IC50 was 4.82 µM.

For the compound `O=C(c1ccncc1)N(Cc1cc2ccccc2[nH]c1=O)C1CCCCC1`, the IC50 was 7.96 µM.

`O=C(N/N=C/c1cc(Br)c(Br)s1)c1ccncc1`: the IC50 entry is “inactive”.

In the case of `CN1C(=O)C2(C(C#N)=C(N)N(c3cc(Cl)cc(Cl)c3)C3=C2C(=O)CC(C)(C)C3)c2ccccc21` (stereo not drawn), the IC50 result is “inactive”.

`O=C(NC1CCCCC1)C(c1cccnc1)N(C(=O)CCl)c1cccc(Cl)c1` (stereo not drawn): the IC50 was 6.03 µM.

For the compound `CC(C)(C)C(=O)Nc1ccc(N=Nc2ccccc2)cc1`, the IC50 was > 35.9 µM (inactive).

`COc1cc(/C=N/NC(=Nc2ccc(C)cc2)c2nc3ccccc3s2)ccc1O`: the IC50 result was “inactive”.

Consider `COc1cc(C(=O)N/N=C(\c2ccccc2)c2ccccn2)cc(OC)c1OC`, for which the IC50 is 7.23 µM.

Take `Cc1nnc(SC(=O)N2c3ccccc3Sc3ccccc32)s1`: the IC50 is 7.54 µM.

`Cc1cccc2sc(NNC(=O)c3ccc(S(=O)(=O)N4CC(C)CC(C)C4)cc3)nc12` (stereo not drawn): the IC50 is 7.55 µM.

Take `CCOc1ccc(Nc2cc(C)nc(-n3nc(C)cc3C)n2)cc1`: the IC50 result was “inactive”.

`O=C(Nc1ccccc1Oc1ccccc1)c1cc([N+](=O)[O-])ccc1Cl`: the IC50 result is “inactive”.

As for `O=C(CC(Nc1ccc(Cl)cc1Cl)C(=O)O)c1ccccc1` (stereo not drawn), the IC50 is 4.77 µM.

Consider `C=CCn1c(C)cc(C(=O)COc2ccc(C)nc2[N+](=O)[O-])c1C`, for which the IC50 result was “inactive”.

As for `CC(=O)Nc1ccc(SCC(=O)c2cc(C)n(-c3ccccc3)c2C)cc1`, the IC50 is > 35.9 µM (inactive).

`COc1ccccc1N(C(=O)CCl)c1cn(C(C)=O)c2ccccc12`: the IC50 was 8.58 µM.

Turning to `CC(C)(C)n1ncc2c(=O)n(CC(=O)OCc3ccccc3)cnc21`, the IC50 entry is “inactive”.

In the case of `CCCc1c(C)nc2ccccc2c1SCCC#N`, the IC50 entry was “inactive”.

On to `Cc1ncc(CO)c(/C=N/NC(=O)c2cc3c(s2)CCCC3)c1O`, for which the IC50 was 6.04 µM.

With `Cc1c(/C(O)=C2/C(=O)C(=O)N(Cc3cccnc3)C2c2ccccn2)cnn1-c1ccccc1` (stereo not drawn), the IC50 was > 35.9 µM (inactive).

For `COc1ccc(/C=C2\CN(Cc3ccccc3)C/C(=C\c3ccc(OC)c(O)c3)C2=O)cc1O`, the IC50 entry was “inactive”.

Consider `Cc1ccc2nc(C(F)(F)F)c(C#N)c(N)c2c1`, for which the IC50 entry is “inactive”.

For `CC(C)N(c1ccccc1)c1ccc(NC(=O)CCl)cc1`, the IC50 entry is “inactive”.

Turning to `O=C(NCCCn1ccnc1)c1ccc(N2CCCCCC2)c([N+](=O)[O-])c1`, the IC50 result was “inactive”.

On to `Cc1nc(N)nc(N)c1-c1ccc(Cl)c(Cl)c1`, for which the IC50 is > 11.9 µM (inactive).

For `c1ccc2c(c1)Nc1ccncc1S2`, the IC50 result was “inactive”.

With `CCOc1ccc(/C=C2\SC(=S)N(CCCC(=O)NCCCN3CCOCC3)C2=O)cc1`, the IC50 result is “inactive”.

For the compound `COc1cc2c(cc1OC)C(C)N(C(=O)c1cccc([N+](=O)[O-])c1)CC2` (stereo not drawn), the IC50 is 8.56 µM.

In the case of `CN[C@H]1CCc2cc(OC)c(OC)c(OC)c2-c2ccc(OC)c(=O)cc21`, the IC50 was > 35.9 µM (inactive).

As for `CC1CCN(C2=NC(=O)/C(=C/c3ccccc3F)S2)CC1`, the IC50 entry is “inactive”.

As for `CCc1ccc(-c2nc(CSCC(=O)NCc3ccco3)c(C)o2)cc1`, the IC50 entry is “inactive”.

For the compound `CC(C)(C)c1ccc(Oc2ccc(N)cn2)cc1`, the IC50 result is “inactive”.

For `COc1ccc(CCNC(=O)c2nnn(-c3ccc4c(c3)OCCO4)c2N)cc1OC`, the IC50 entry was “inactive”.

Take `CCN(C(C)=O)c1cnc(C=NNC(N)=S)c2ccccc12`: the IC50 is 4.4 µM.

`CCc1ccc(/C=C2\SC(=S)N(CCCC(=O)NCCCN3CCOCC3)C2=O)cc1`: the IC50 entry was “inactive”.

In the case of `CN(Cc1cnc2nc(N)nc(N)c2n1)c1ccc(C(=O)NC(CCC(=O)O)C(=O)O)cc1` (stereo not drawn), the IC50 was > 35.9 µM (inactive).

Take `Cc1ccc(/C=C2\SC(=S)N(CCCC(=O)NC3CCCC3)C2=O)cc1`: the IC50 was 4.58 µM.

As for `CCOC(=O)C(=CNc1ccc(NC2=NCC(C)S2)cc1)C(=O)OCC` (stereo not drawn), the IC50 entry was “inactive”.

With `c1cc2[nH]snc2c2nc(C3CC3)nc12`, the half-inhibitory concentration (IC50) is 4.83 µM.

Turning to `CNc1ncnc(Sc2nc(N)nc3nc[nH]c23)c1[N+](=O)[O-]`, the IC50 was 4.85 µM.

Consider `O=C(OCc1ccccc1)c1ccc(NCc2cc(O)ccc2O)cc1`, for which the IC50 is 5.95 µM.

Take `COc1cc(/C=C(/C(=O)c2cccs2)c2nc3ccccc3[nH]2)cc(OC)c1O`: the IC50 is 8.01 µM.

Consider `Nc1nc2c(nnn2C2CC(O)C(CO)O2)c(=O)[nH]1` (stereo not drawn), for which the IC50 result was “inactive”.

Regarding `O=c1[nH]c2ccccc2n1C1CCN(C(c2cc3ccccc3o2)c2nnnn2Cc2ccccc2)CC1` (stereo not drawn), the IC50 entry is “inactive”.

For the compound `O=c1[nH]c2ccccc2n1C1CCN(C(c2ccccc2)c2nnnn2Cc2ccccc2)CC1` (stereo not drawn), the IC50 entry is “inactive”.

Take `Fc1ccccc1-c1csc(=Nc2cccnc2)n1CCCn1ccnc1`: the IC50 is 7.45 µM.

On to `Brc1ccc2ncc3ccccc3c2c1`, for which the IC50 entry was “inactive”.

For `CC(=O)Nc1ccc(SCC(=O)c2cc(C)n(-c3ccccc3F)c2C)cc1`, the IC50 was > 12 µM (inactive).

Regarding `Cc1ccc(NC(=O)c2cc(C)n(-c3ccccc3)c2C)cc1`, the IC50 was 0.223 µM.

With `Clc1ccc(-c2csc3ncnc(NCCN4CCOCC4)c23)cc1`, the IC50 was 8.01 µM.

Consider `COc1cc2[nH]c3c(Cl)ncnc3c2cc1OC`, for which the IC50 result is “inactive”.

Turning to `O=C(Nc1cccnc1)c1ccc(C(=O)Nc2cccnc2)cc1`, the IC50 was > 35.9 µM (inactive).

For the compound `Nc1nc(=S)c2ncn([C@@H]3O[C@H](CO)[C@@H](O)[C@H]3O)c2[nH]1`, the IC50 is 3.37 µM.

Take `Cn1cnc([N+](=O)[O-])c1Sc1nc(N)nc2c1ncn2C1OC(CO)C(O)C1O` (stereo not drawn): the IC50 was 7.47 µM.

For `NC(=S)N/N=C1\CCOc2ccc(Cl)cc21`, the IC50 result was “inactive”.

Consider `CO[C@@]12[C@@H]3N[C@@H]3CN1C1=C(C(=O)C(N)=C(C)C1=O)[C@@H]2COC(N)=O`, for which the IC50 is > 35.8 µM (inactive).

As for `C/C(=N\NC(=S)Nc1cc(S(=O)(=O)N2CCOCC2)ccc1Cl)c1ccccc1F`, the IC50 entry was “inactive”.
